Measured values reported in article PMC6022228, “Introducing novel potent anticancer agents of 1H-benzo[f]chromene scaffolds, targeting c-Src kinase enzyme with MDA-MB-231 cell line anti-invasion effect” (Journal of Enzyme Inhibition and Medicinal Chemistry, 2018).
In brackets after ≈: the same amount, converted by molar mass.

How the values were obtained:
MCF-7 = experiment: MTT viability assay, MCF-7 (breast cancer); assay type: cell-based; conditions: Homo sapiens, MCF7, 24 h incubation, mean ± standard error
Protocol: (§1) Compounds 4a–h and 6a–h were initially evaluated for in vitro antitumour activity against three different human cell lines: MCF-7, HCT-116, and HepG-2, and only the representative active cytotoxic compounds were further evaluated against the normal HFL-1 cell line. The in vitro cytotoxicity evaluation was performed at the Regional Center for Mycology & Biotechnology (RCMP), Al-Azhar University under different concentrations (50, 25, 12.5, 6.25, 3.125, 1.56, and 0 µg/mL); Vinblastine and Doxorubicin are used as reference cytotoxic compounds. The measurements of cell growth and the in vitro cytotoxicity evaluation were determined using viability assay as described in literature[31–33] and the result was cited in Table 1 and Figure 2.
(§2) The in vitro cytotoxic evaluation of the prepared compounds 4a–h and 6a–h was performed against MCF-7 (breast cancer), HCT-116 (human colon cancer), HepG-2 (liver cancer), and HFL-1(normal fibroblast lung) using the 3-(4,5-dimethylthiazol-2-yl)-2,5-diphenyl tetrazolium bromide (MTT) colorimetric assay as described in literature. […] The results were expressed as growth inhibitory concentration (IC50) values, which represent the compounds’ concentrations required to produce a 50% inhibition of the cell growth after 24 h of incubation, compared to the untreated controls as shown in Table 1 and Figure 2.

HCT-116 = experiment: MTT viability assay, HCT-116 (human colon cancer); assay type: cell-based; conditions: 24 h incubation, mean ± standard error
Protocol: as §1, §2

HepG-2 = experiment: MTT viability assay, HepG-2 (liver cancer); assay type: cell-based; conditions: Homo sapiens, HepG2, 24 h incubation, mean ± standard error
Protocol: as §1, §2

HFL-1 = experiment: MTT viability assay, HFL-1 (normal fibroblast lung); assay type: cell-based; conditions: Homo sapiens, HFL1, 24 h incubation, normal cell line, mean ± standard error
Protocol: as §1, §2

MDA-MB-231 cell line = experiment: Cell invasion assay; assay type: cell-based; conditions: Homo sapiens, Table 2, read-out: IC50 anti-invasion, MDA-MB-231 breast cancer cells
Protocol: The cell invasion assay was performed by Reaction Biology Corporation, One Great Valley Parkway, PA. All compounds were dissolved in DMSO and tested for their ability to cell invasion assay. Compounds 4c, 6e, and reference compound bosutinib were purchased from Sellechem (Houston, TX). Corning Bio Coat Fluoro Blok Insert System-96-well plates were purchased from Corning (Corning Incorporated, Tewksbury, MA). Calcein AM labelling reagent was purchased from Molecular Probes (Eugene, Oregon). MDA-MB-231 cell line was purchased from American Type Culture Collection (Manassas, VA). MDA-MB-231 cells were grown in DMEM medium supplemented with 10% foetal bovine serum (FBS), 100 µg/mL of penicillin, and 100 µg/mL of streptomycin. Cultures were maintained at 37 °C in a humidified atmosphere of 5% CO2 and 95% air-following incubation; medium was carefully removed from the apical chambers. The insert system was transferred into a second 96-square well plate containing 200 µl/well of 4 µg/mL Calcein AM in HBSS. The plates were incubated for 1 h at 37 °C, 5% CO2. Fluorescence of invaded cells was read at wavelengths of 492/535 nm (Ex/Em) from bottom reading using Envision 2104 Multilabel Reader (PerkinElmer, Santa Clara, CA). The IC50 curves were plotted and IC50 values were calculated using the Graph Pad Prism 4 program for windows (Graph Pad software, San Diego California. www.graphpad.com) based on a sigmoidal dose-response equation.
Tumour invasion is a common feature of triple-negative breast cancers. […] The invasion process has become an important prerequisite for cancer progression and metastasis. […] A bosutinib drug was used as a control ant-invasive agent. […] The obtained data might confirm that the cytotoxicity of novel molecules led to the death of the cancer cells and stopped the metastatic processes.

[1] = test system: caspases 3/7 in MDA-MB-231 cells; experiment: Caspase-Glo 3/7 activity assay; assay type: cell-based; conditions: Homo sapiens, 24 h treatment, 10 concentrations, read-out: Caspase-Glo 3/7 activity assay, MDA-MB-231 cell line, IC50
Protocol: The Caspase-Glo 3/7 activity assay was performed by Reaction Biology Corporation, One Great Valley Parkway, PA. Examined compounds 4c, 4e, 4h, 6d, and 6e were dissolved in DMSO as 20 mM stock and tested for their ability to Caspase-Glo 3/7 activity assay. […] Caspase-Glo 3/7 activity assay reagent was purchased from Promega (Madison, WI). MDA-MB-231 cell line was provided by ATCC. MDA-MB-231 cell line culture conditions: DMEM with 10% FBS. 100 µg/mL penicillin and 100 µg/mL streptomycin were added to the culture media. Cultures were maintained at 37 °C in a humidified atmosphere of 5% CO2 and 95% air.
Caspases are […] that promote apoptosis. Caspases are vital biochemical features of apoptotic signalling. […] To determine whether the cell growth inhibition in response to the benzochromene derivatives was mediated by apoptosis and was caspase dependent, MDA-MB-231 cells were treated with 10 different concentrations of the target compounds for 24 h.

c-Src kinase = target: T1, c-Src kinase (Homo sapiens, UniProt P12931); experiment: c-Src kinase assay (HTScan Src Kinase Assay Kit); assay type: biochemical; conditions: GST-Src kinase, triplicate; read-out: Inhibition of c-Src kinase activity, IC50
T1 construct: purchased Cell Signaling Technology (Danvers, MA) 7776
T1 sequence (P12931 whole entry): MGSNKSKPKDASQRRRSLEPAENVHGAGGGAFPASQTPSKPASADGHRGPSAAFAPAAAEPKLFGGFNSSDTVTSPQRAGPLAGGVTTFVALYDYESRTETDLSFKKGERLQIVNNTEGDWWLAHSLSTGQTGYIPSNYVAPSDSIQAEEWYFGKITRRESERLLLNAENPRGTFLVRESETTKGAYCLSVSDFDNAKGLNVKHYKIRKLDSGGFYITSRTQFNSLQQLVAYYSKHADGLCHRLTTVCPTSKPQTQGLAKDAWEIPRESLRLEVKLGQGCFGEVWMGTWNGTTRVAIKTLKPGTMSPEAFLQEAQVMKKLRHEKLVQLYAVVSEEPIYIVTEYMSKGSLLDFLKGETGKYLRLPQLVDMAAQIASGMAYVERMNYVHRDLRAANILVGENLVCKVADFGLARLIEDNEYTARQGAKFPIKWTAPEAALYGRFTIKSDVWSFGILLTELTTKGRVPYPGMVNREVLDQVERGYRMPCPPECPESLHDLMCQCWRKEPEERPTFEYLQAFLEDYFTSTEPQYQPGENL
Protocol: Streptavidin-coated plates were purchased from Pierce (Rockford, IL). […] The reaction mixture was incubated for 30 min at room temperature. The kinase reaction was stopped with the addition of 50 µL of 50 mM EDTA (pH 8.0). […] At the end of the incubation, the wells were washed three times with 200 µL of 0.05% Tween-20 in PBS buffer (PBS/T). After that to each well was added 100 µL of phosphotyrosine antibody (P-Tyr-100) (1:1000 dilution in PBS/T with 1% BSA) and the wells were incubated for another 60 min. After washing three times with 0.05% Tween-20 in PBS/T, the wells were incubated with 100 µL secondary anti-mouse IgG antibody, which was HRP-conjugated (1:500 dilution in PBS/T with 1% BSA) for next 30 min at room temperature. The wells were washed five times with 0.05% Tween-20 in PBS and then were incubated with 100 µL of 3,3′,5,5′-tetramethylbenzidine dihydrochloride substrate for 5 min. […] IC50 values of the compounds were calculated using ORIGIN 6.0 (Origin Lab Corporation, Northampton, MA) software. […] All the experiments were carried out in triplicate.

IC50 (MCF-7): 0.3 ± 0.05 mg/L (≈ 0.876 µM)
IC50 (HCT-116): 0.8 ± 0.06 mg/L (≈ 2.34 µM)
IC50 (HepG-2): 0.6 ± 0.21 mg/L (≈ 1.75 µM)
IC50 (MDA-MB-231 cell line): 16.5 µM
IC50 [1]: 38.9 µM
IC50 (c-Src kinase): 0.009 µM
melting point: 232 to 233 °C
SMILES: COc1ccc2c3c(ccc2c1)OC(N)=C(C#N)C3c1ccc(C)cc1 (centres unmarked) [Compound 6e, 3-Amino-8-methoxy-1-(4-methylphenyl)-1H-benzo[f]chromene-2-carbonitrile]
IC50 (HFL-1): 29.7 ± 0.17 mg/L (≈ 86.7 µM)
